Consider 24 compounds from the NIST ThermoML archive (doi:10.1016/j.jct.2018.02.014).

Structures are written as SMILES. Numbers after ± are expanded uncertainties.

The nature of the data set: activity coefficient (dimensionless); of the first substance listed, at infinite dilution; xn = mol fraction of the nth substance listed. Conditions: 101.33 kPa, Liquid, Chromatography, x1 = 0.

With `C1CCCCC1` [cyclohexane] + CC[N+]1(C)CCOCC1.N#CN=C=[N-], the activity coefficient is, setting by setting: (318.15 K) 168 ± 12; (328.15 K) 152 ± 10; (338.15 K) 138 ± 9; (348.15 K) 126 ± 9; (358.15 K) 115 ± 8; (368.15 K) 106 ± 7.

As to `C1CCOC1` [tetrahydrofuran] + CC[N+]1(C)CCOCC1.N#CN=C=[N-], the activity coefficient (318.15 K) was 3.3 ± 0.22; the activity coefficient (328.15 K) is 3.44 ± 0.23; the activity coefficient (338.15 K) turned out to be 3.57 ± 0.24; the activity coefficient (348.15 K) is 3.7 ± 0.25; the activity coefficient (358.15 K) was 3.82 ± 0.26; the activity coefficient (368.15 K) was 3.95 ± 0.27.

In the case of `C=C(C)c1ccccc1` [(1-methylethenyl)benzene] + CC[N+]1(C)CCOCC1.N#CN=C=[N-], the activity coefficient was determined as 10.5 ± 0.7 (318.15 K); 11.1 ± 0.8 (328.15 K); 11.6 ± 0.8 (338.15 K); 12.1 ± 0.8 (348.15 K); 12.6 ± 0.9 (358.15 K); 13.1 ± 0.9 (368.15 K).

Turning to `CCC(=O)OC` [methyl propanoate] + CC[N+]1(C)CCOCC1.N#CN=C=[N-], the activity coefficient (318.15 K) worked out at 5.12 ± 0.35; the activity coefficient (328.15 K) turned out to be 5.36 ± 0.37; the activity coefficient (338.15 K) was 5.59 ± 0.38; the activity coefficient (348.15 K) stood at 5.82 ± 0.4; the activity coefficient (358.15 K) was determined as 6.04 ± 0.41; the activity coefficient (368.15 K) was determined as 6.26 ± 0.43.

With `CCCCCCCCC` [nonane] + CC[N+]1(C)CCOCC1.N#CN=C=[N-], the activity coefficient reads like this: (318.15 K) 1540 ± 110; (328.15 K) 1350 ± 93; (338.15 K) 1190 ± 82; (348.15 K) 1050 ± 73; (358.15 K) 945 ± 65; (368.15 K) 850 ± 59.

On to `C=CCCCCCC` [oct-1-ene] + CC[N+]1(C)CCOCC1.N#CN=C=[N-], for which the activity coefficient runs as follows: (318.15 K) 496 ± 34; (328.15 K) 445 ± 31; (338.15 K) 402 ± 28; (348.15 K) 364 ± 25; (358.15 K) 333 ± 23; (368.15 K) 307 ± 21.

For the compound `CCCCO` [butan-1-ol] + CC[N+]1(C)CCOCC1.N#CN=C=[N-], the activity coefficient came to 3.08 ± 0.21 (318.15 K); 3.02 ± 0.21 (328.15 K); 2.98 ± 0.2 (338.15 K); 2.94 ± 0.2 (348.15 K); 2.9 ± 0.2 (358.15 K); 2.86 ± 0.19 (368.15 K).

Turning to `CC(C)CC(C)(C)C` [2,2,4-trimethylpentane] + CC[N+]1(C)CCOCC1.N#CN=C=[N-], the activity coefficient was 1220 ± 84 (298.15 K); 1070 ± 74 (308.15 K); 951 ± 66 (318.15 K); 853 ± 59 (328.15 K); 768 ± 53 (338.15 K).

`CCOC(C)(C)C` [2-ethoxy-2-methylpropane] + CC[N+]1(C)CCOCC1.N#CN=C=[N-]: the activity coefficient was 105 ± 7 (328.15 K); 108 ± 7 (338.15 K); 111 ± 8 (348.15 K); 113 ± 8 (358.15 K); 116 ± 8 (368.15 K).

Turning to `CCO` [ethanol] + CC[N+]1(C)CCOCC1.N#CN=C=[N-], the activity coefficient (318.15 K) stood at 1.2 ± 0.08; the activity coefficient (328.15 K) was 1.2 ± 0.08; the activity coefficient (338.15 K) turned out to be 1.21 ± 0.08; the activity coefficient (348.15 K) was 1.21 ± 0.08; the activity coefficient (358.15 K) came out at 1.22 ± 0.08; the activity coefficient (368.15 K) turned out to be 1.22 ± 0.08.

For the compound `c1ccncc1` [pyridine] + CC[N+]1(C)CCOCC1.N#CN=C=[N-], the activity coefficient runs as follows: (318.15 K) 1.74 ± 0.12; (328.15 K) 1.81 ± 0.12; (338.15 K) 1.88 ± 0.13; (348.15 K) 1.96 ± 0.13; (358.15 K) 2.03 ± 0.14; (368.15 K) 2.1 ± 0.14.

As to `C1CCCCCCC1` [cyclooctane] + CC[N+]1(C)CCOCC1.N#CN=C=[N-], the activity coefficient (318.15 K) turned out to be 313 ± 22; the activity coefficient (328.15 K) was found to be 293 ± 20; the activity coefficient (338.15 K) was 273 ± 19; the activity coefficient (348.15 K) is 257 ± 18; the activity coefficient (358.15 K) was 242 ± 17; the activity coefficient (368.15 K) came to 229 ± 16.

With `CCCC(=O)OC` [methyl butanoate] + CC[N+]1(C)CCOCC1.N#CN=C=[N-], the activity coefficient came to 9.27 ± 0.63 (318.15 K); 9.53 ± 0.65 (328.15 K); 9.79 ± 0.67 (338.15 K); 10 ± 0.7 (348.15 K); 10.3 ± 0.7 (358.15 K); 10.5 ± 0.7 (368.15 K).

Turning to `CC#N` [acetonitrile] + CC[N+]1(C)CCOCC1.N#CN=C=[N-], the activity coefficient by setting is: (318.15 K) 0.966 ± 0.061; (328.15 K) 1.01 ± 0.06; (338.15 K) 1.06 ± 0.07; (348.15 K) 1.11 ± 0.07; (358.15 K) 1.16 ± 0.07; (368.15 K) 1.21 ± 0.08.

Consider `CCC(C)(C)OC` [2-methoxy-2-methylbutane] + CC[N+]1(C)CCOCC1.N#CN=C=[N-], for which the activity coefficient turned out to be 55.7 ± 3.8 (328.15 K); 57.9 ± 4 (338.15 K); 60 ± 4.1 (348.15 K); 62.2 ± 4.3 (358.15 K); 64.3 ± 4.4 (368.15 K).

As for `CCC(=O)CC` [pentan-3-one] + CC[N+]1(C)CCOCC1.N#CN=C=[N-], the activity coefficient (318.15 K) was found to be 5.23 ± 0.36; the activity coefficient (328.15 K) was determined as 5.44 ± 0.37; the activity coefficient (338.15 K) amounted to 5.64 ± 0.38; the activity coefficient (348.15 K) was determined as 5.84 ± 0.4; the activity coefficient (358.15 K) was 6.03 ± 0.41; the activity coefficient (368.15 K) came out at 6.23 ± 0.42.

On to `CC(C)c1ccccc1` [isopropylbenzene] + CC[N+]1(C)CCOCC1.N#CN=C=[N-], for which the activity coefficient runs as follows: (318.15 K) 27 ± 1.8; (328.15 K) 26.9 ± 1.8; (338.15 K) 26.9 ± 1.8; (348.15 K) 26.9 ± 1.8; (358.15 K) 26.9 ± 1.8; (368.15 K) 26.9 ± 1.8.

`CCCCCCCC` [octane] + CC[N+]1(C)CCOCC1.N#CN=C=[N-]: the activity coefficient by setting is: (318.15 K) 1130 ± 78; (328.15 K) 1010 ± 70; (338.15 K) 903 ± 62; (348.15 K) 814 ± 56; (358.15 K) 737 ± 51; (368.15 K) 672 ± 46.

On to `COC(C)(C)C` [2-methoxy-2-methylpropane] + CC[N+]1(C)CCOCC1.N#CN=C=[N-], for which the activity coefficient is, setting by setting: (328.15 K) 33.1 ± 2.3; (338.15 K) 34.4 ± 2.4; (348.15 K) 35.6 ± 2.4; (358.15 K) 36.8 ± 2.5; (368.15 K) 38 ± 2.6.

Take `CCc1ccccc1` [ethylbenzene] + CC[N+]1(C)CCOCC1.N#CN=C=[N-]: the activity coefficient is 15.1 ± 1 (318.15 K); 15.3 ± 1 (328.15 K); 15.5 ± 1.1 (338.15 K); 15.7 ± 1.1 (348.15 K); 15.8 ± 1.1 (358.15 K); 16 ± 1.1 (368.15 K).

`c1ccccc1` [benzene] + CC[N+]1(C)CCOCC1.N#CN=C=[N-]: the activity coefficient is 4.46 ± 0.3 (318.15 K); 4.62 ± 0.31 (328.15 K); 4.76 ± 0.32 (338.15 K); 4.91 ± 0.33 (348.15 K); 5.05 ± 0.34 (358.15 K); 5.2 ± 0.35 (368.15 K).

In the case of `c1ccsc1` [thiophene] + CC[N+]1(C)CCOCC1.N#CN=C=[N-], the activity coefficient is, setting by setting: (318.15 K) 2.24 ± 0.15; (328.15 K) 2.36 ± 0.16; (338.15 K) 2.48 ± 0.17; (348.15 K) 2.59 ± 0.18; (358.15 K) 2.71 ± 0.18; (368.15 K) 2.82 ± 0.19.

Consider `C#CCCCC` [1-hexyne] + CC[N+]1(C)CCOCC1.N#CN=C=[N-], for which the activity coefficient is, setting by setting: (318.15 K) 24.8 ± 1.7; (328.15 K) 25.6 ± 1.8; (338.15 K) 26.4 ± 1.8; (348.15 K) 27.4 ± 1.9; (358.15 K) 28.1 ± 1.9; (368.15 K) 28.9 ± 2.

Turning to `CCCCCO` [pentan-1-ol] + CC[N+]1(C)CCOCC1.N#CN=C=[N-], the activity coefficient by setting is: (318.15 K) 4.78 ± 0.33; (328.15 K) 4.7 ± 0.32; (338.15 K) 4.63 ± 0.32; (348.15 K) 4.56 ± 0.31; (358.15 K) 4.49 ± 0.31; (368.15 K) 4.43 ± 0.3.
